Measurements: US4333952A, “Growth promotors for ruminants” (Beecham Group Limited, priority 1979, dated 1982)
Read-outs that look alike come from different tables or passages of the source.

What was measured:
[1] = tested on: rumen fluid; experiment: in vitro incubation of buffered rumen fluid (methane inhibition, propionate enhancement, headspace gases and volatile fatty acids); assay type: cell-based, sheep; settings: for inhibition at 0.5 ppm / inhibition at 1 ppm / inhibition at 1.5 ppm / inhibition at 3 ppm / inhibition at 5 ppm / inhibition at 10 ppm / activation at 0.5 ppm / activation at 1 ppm / activation at 1.5 ppm / activation at 3 ppm / activation at 5 ppm / activation at 10 ppm / inhibition at 2 ppm / activation at 2 ppm: Ovis aries
Protocol: The compounds were tested for their ability to reduce or inhibit methane production and to enhance propionate formation. The method used is as follows:
The screening system is in vitro incubation of buffered rumen fluid with, or without, the addition of the test compound.
Rumen fluid is removed by suction from two rumenfistulated sheep, just before feeding. The fluid is strained and mixed. The incubation is for twenty hours in a shaking water-bath at 39° C. Each incubation flask contains: 30 ml McDougall's bicarbonate buffer, pH 6.7-6.9, 10 ml strained rumen fluid, 200 mg substrate (the substrate is a ground sample of the diet on which the sheep has been fed) and 1 ml 10% aqueous ethanol containing 0.2% Tween 80 and the compound under examination. Samples are taken at the end of the incubation period for analysis of headspace gases and volatile fatty acids, by g.l.c.
The compounds were tested at 10 ppm/flask, except for the compounds of Examples 9 and 10 which were tested at 5 ppm/flask.
Selected compounds were also tested according to the above protocol at doses of 2 and 3 ppm, the results being given in Table 2 below.
The compound of Example 1 was further tested in an in vitro a dose response study, according to the protocol above, at the doses shown in Table 3 below.

[2] = tested on: methanogenesis; experiment: in vivo gas collection screen in sheep (respirometer, methanogenesis and hydrogen evolution); settings: 5 week period; for Hydrogen evolution / % inhibition of methanogenesis: sheep, 75 mg/day in feed; for % inhibition of methanogenesis: * = significantly different from control, p < 0.01
Protocol: In vivo studies in a "gas collection screen":
Groups of 4, 50 kg sheep were fed diets containing one of the compounds of formula (I) over a 5 week period. A different sheep from each group was put into a respirometer for 24 hours each day. Each sheep was thus monitored once in every […], gas flow was maintained by a peristaltic pump and measured using a commercial gas meter and a sub-sample collected in a butyl-rubber inner tube.

[3] = 20 h, read-out: VFA production % change from control, Acetate
[4] = 20 h, read-out: VFA production % change from control, Butyrate
[5] = 20 h, read-out: VFA production % change from control, Propionate
[6] = 20 h, read-out: VFA production % change from control, TVFA
[7] = 20 h, read-out: VFA production % difference from control, Acetate
[8] = 20 h, read-out: VFA production % difference from control, Butyrate
[9] = 20 h, read-out: VFA production % difference from control, Propionate
[10] = 20 h, read-out: VFA production % difference from control, TVFA
[11] = 10 ppm/flask, 20 h, 39° C., read-out: % inhibition of methane
[12] = 5 ppm/flask (Examples 9 and 10), 20 h, 39° C.

SMILES: OC(COc1ccccc1)C(Cl)(Cl)Cl (stereo not shown) [Example 1, 1,1,1-Trichloro-3-phenoxypropan-2-ol]
- % hydrogen present ([1]; 10 ppm/flask, 20 h, 39° C.): 2.81%
- Molar % VFA Acetate ([1]; 10 ppm/flask, 20 h, 39° C.): 59.3 Molar %
- Molar % VFA Butyrate ([1]; 10 ppm/flask, 20 h, 39° C.): 14.1 Molar %
- Molar % VFA Propionate ([1]; 10 ppm/flask, 20 h, 39° C.): 23.6 Molar %
- TVFA ([1]; 10 ppm/flask, 20 h, 39° C.): 59.0 μM/ml
- inhibition at 0.5 ppm [1, 3]: 12.8%
- inhibition at 1 ppm [1, 3]: 31.5%
- inhibition at 1.5 ppm [1, 3]: 32.5%
- inhibition at 3 ppm [1, 3]: 34.6%
- inhibition at 5 ppm [1, 3]: 35.7%
- inhibition at 10 ppm [1, 3]: 32.9%
- activation at 0.5 ppm [1, 4]: -2%
- activation at 1 ppm [1, 4]: 2.9%
- activation at 1.5 ppm [1, 4]: 17.3%
- activation at 3 ppm [1, 4]: 20%
- activation at 5 ppm [1, 4]: 28.3%
- activation at 10 ppm [1, 4]: 30.1%
- activation at 0.5 ppm [1, 5]: 1.9%
- activation at 1 ppm [1, 5]: 14.3%
- activation at 1.5 ppm [1, 5]: 30.7%
- activation at 3 ppm [1, 5]: 38.4%
- activation at 5 ppm [1, 5]: 50%
- activation at 10 ppm [1, 5]: 56.4%
- inhibition at 0.5 ppm [1, 6]: 8.8%
- inhibition at 1 ppm [1, 6]: 18.9%
- inhibition at 1.5 ppm [1, 6]: 16.6%
- inhibition at 3 ppm [1, 6]: 24.5%
- inhibition at 5 ppm [1, 6]: 12.5%
- inhibition at 10 ppm [1, 6]: 12.6%
- inhibition at 10 ppm [1, 7]: 32.9%
- activation at 10 ppm [1, 8]: 30.1%
- activation at 10 ppm [1, 9]: 56.4%
- inhibition at 10 ppm [1, 10]: 12.6%
- inhibition at 10 ppm [1, 11]: 98.5%
- inhibition at 0.5 ppm ([1]; Table 3 dose response, 0.5 ppm, read-out: % inhibition of methane): 14.5%
- inhibition at 1 ppm ([1]; Table 3 dose response, 1.0 ppm, read-out: % inhibition of methane): 36.4%
- inhibition at 1.5 ppm ([1]; Table 3 dose response, 1.5 ppm, read-out: % inhibition of methane): 55.1%
- inhibition at 3 ppm ([1]; Table 3 dose response, 3 ppm, read-out: % inhibition of methane): 76%
- inhibition at 5 ppm ([1]; Table 3 dose response, 5 ppm, read-out: % inhibition of methane): 96.6%
- inhibition at 10 ppm ([1]; Table 3 dose response, 10 ppm, read-out: % inhibition of methane): 98.5%
- % hydrogen in headspace gases ([1]; Table 3 dose response, 0.5 ppm): 0.01%
- % hydrogen in headspace gases ([1]; Table 3 dose response, 1.0 ppm): 0.11%
- % hydrogen in headspace gases ([1]; Table 3 dose response, 1.5 ppm): 0.95%
- % hydrogen in headspace gases ([1]; Table 3 dose response, 3 ppm): 1.08%
- % hydrogen in headspace gases ([1]; Table 3 dose response, 5 ppm): 1.48%
- % hydrogen in headspace gases ([1]; Table 3 dose response, 10 ppm): 2.82%
- Hydrogen evolution [2]: 5.6 liters/24 hours
- % inhibition of methanogenesis [2]: 41.2%

SMILES: OC(CNc1ccccc1)C(Cl)(Cl)Cl (stereo not shown) [Example 4, 1,1,1-Trichloro-3-anilinopropan-2-ol]
- % hydrogen present ([1]; 10 ppm/flask, 20 h, 39° C.): 2.13%
- Molar % VFA Acetate ([1]; 10 ppm/flask, 20 h, 39° C.): 59.3 Molar %
- Molar % VFA Butyrate ([1]; 10 ppm/flask, 20 h, 39° C.): 13.7 Molar %
- Molar % VFA Propionate ([1]; 10 ppm/flask, 20 h, 39° C.): 23.9 Molar %
- TVFA ([1]; 10 ppm/flask, 20 h, 39° C.): 57.2 μM/ml
- inhibition at 2 ppm [1, 3]: 12.8%
- activation at 2 ppm [1, 4]: 3%
- activation at 2 ppm [1, 5]: 27.2%
- inhibition at 2 ppm [1, 6]: 4%
- inhibition at 10 ppm [1, 7]: 36.4%
- activation at 10 ppm [1, 8]: 18.2%
- activation at 10 ppm [1, 9]: 52.8%
- inhibition at 10 ppm [1, 10]: 16.7%
- inhibition at 10 ppm [1, 11]: 98.5%
- inhibition at 2 ppm ([1]; Table 2, 2 ppm, read-out: % inhibition of methane): 20.8%
- % hydrogen in headspace gases ([1]; Table 2, 2 ppm): 0.09%
- Hydrogen evolution [2]: 1.8 liters/24 hours
- % inhibition of methanogenesis [2]: 11.5%

SMILES: OC(CN(CC(O)C(Cl)(Cl)Cl)c1ccccc1)C(Cl)(Cl)Cl (stereo not shown) [Example 7, N,N-Di (3,3,3-Trichloro-2-hydroxypropyl)aniline]
- % hydrogen present ([1]; 10 ppm/flask, 20 h, 39° C.): 2.17%
- Molar % VFA Acetate ([1]; 10 ppm/flask, 20 h, 39° C.): 61.9 Molar %
- Molar % VFA Butyrate ([1]; 10 ppm/flask, 20 h, 39° C.): 9.72 Molar %
- Molar % VFA Propionate ([1]; 10 ppm/flask, 20 h, 39° C.): 24.8 Molar %
- TVFA ([1]; 10 ppm/flask, 20 h, 39° C.): 56.2 μM/ml
- inhibition at 10 ppm [1, 11]: 87.9%
- inhibition at 10 ppm ([1]; 10 ppm/flask, 20 h, 39° C., read-out: VFA production % difference from control, Acetate): 40.8%
- activation at 10 ppm ([1]; 10 ppm/flask, 20 h, 39° C., read-out: VFA production % difference from control, Butyrate): 18.9%
- activation at 10 ppm ([1]; 10 ppm/flask, 20 h, 39° C., read-out: VFA production % difference from control, Propionate): 39%
- inhibition at 10 ppm ([1]; 10 ppm/flask, 20 h, 39° C., read-out: VFA production % difference from control, TVFA): 24.7%

SMILES: O=C(CC(O)C(Cl)(Cl)Cl)c1ccc(Cl)cc1 (stereo not shown) [Example 8, 1-p-Chlorophenacyl-2-hydroxy-3-trichloropropane]
- % hydrogen present ([1]; 10 ppm/flask, 20 h, 39° C.): 0.05%
- Molar % VFA Acetate ([1]; 10 ppm/flask, 20 h, 39° C.): 63.5 Molar %
- Molar % VFA Butyrate ([1]; 10 ppm/flask, 20 h, 39° C.): 9.8 Molar %
- Molar % VFA Propionate ([1]; 10 ppm/flask, 20 h, 39° C.): 23.7 Molar %
- TVFA ([1]; 10 ppm/flask, 20 h, 39° C.): 50.5 μM/ml
- inhibition at 10 ppm [1, 7]: 23.1%
- activation at 10 ppm [1, 8]: 50.7%
- activation at 10 ppm [1, 9]: 42.4%
- inhibition at 10 ppm [1, 10]: 6.5%
- inhibition at 10 ppm [1, 11]: 34.1%

SMILES: OC(CC(O)C(Cl)(Cl)Cl)c1ccc(Cl)cc1 (stereo not shown) [Example 9, 1-p-Chlorophenyl-1,3-dihydroxy-4,4,4-trichlorobutane]
- % hydrogen present [1, 12]: 0.64%
- Molar % VFA Acetate [1, 12]: 59.9 Molar %
- Molar % VFA Butyrate [1, 12]: 10.7 Molar %
- Molar % VFA Propionate [1, 12]: 26.4 Molar %
- TVFA [1, 12]: 47.7 μM/ml
- inhibition at 5 ppm [1, 7]: 38.5%
- activation at 5 ppm [1, 8]: 59.7%
- activation at 5 ppm [1, 9]: 53.2%
- inhibition at 5 ppm [1, 10]: 15.5%
- inhibition at 5 ppm ([1]; 5 ppm/flask (Examples 9 and 10), 20 h, 39° C., read-out: % inhibition of methane): 50.7%

SMILES: CC[C@@]1([C@@H]2O[C@@H]([C@H]3O[C@@](O)(CO)[C@H](C)C[C@@H]3C)C[C@@H]2C)CC[C@H]([C@]2(C)CC[C@]3(C[C@H](O)[C@@H](C)[C@@H]([C@@H](C)[C@@H](OC)[C@H](C)C(=O)O)O3)O2)O1 [Monensin, reference compound]
- methane inhibition ([2]; 50 mg/sheep/day, same study): 41%
